# Results taken from PMC9019904, “AD Informer Set: Chemical tools to facilitate Alzheimer's disease drug discovery” (Alzheimer's & Dementia : Translational Research & Clinical …, 2022).
# Where a SMILES comes first, the peptide text is derived from it. [ ]: non-standard residue; d: D form. dHyp = O=C(O)[C@H]1C[C@H](O)CN1
# Experiments:
# cellular system = conditions: published cellular activity at 10 μM; cited from earlier work
# [1] = Kinetic solubility in aqueous buffer pH 7.4 by total chemiluminescent nitrogen determination (Analiza); conditions: for solubility kinetic: aqueous buffer, pH 7.4, aqueous buffer, kinetic from dmso stock
# [2] = test system: BV2 (mouse microglia) cell line; assay: pHrodo-myelin phagocytosis/cell viability high content imaging assay: phagocytosis signal; format: cell-based
# Summary of the method: (§1)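 Phagocytosis and cell viability were measured together by high content imaging about 22 hours after pHrodo-myelin addition. Three measurements were extracted from the images. Intensity increase and decrease were taken as early and later apoptosis, respectively.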
# [3] = test system: HMC3 (human microglia) cell line; assay: as above; format: cell-based; conditions: HMC3 cells, 10 μM
# Summary of the method: as §1
# [4] = test system: BV2 (mouse microglia) cell line; assay: pHrodo-myelin phagocytosis/cell viability high content imaging assay: viability (cell count, nuclear area, nuclear intensity)
# Summary of the method: (§2)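 Viability was read as total cell count per well by high-content imaging, with mean average nuclear intensity per cell profiling apoptosis (rise early, fall late). Compounds were given at 10 μM for 48 h, pHrodo-myelin being added for the final 20 h. Values are means of two points as % untreated control.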
# [5] = test system: HMC3 (human microglia) cell line; assay: as above; conditions: HMC3 cells, 10 μM, cell count <70% control
# Summary of the method: as §2
# [6] = pH 7.4, aqueous buffer, kinetic from dmso stock
# [7] = BV2 cells, 10 μM, cell count <70% control
Structure (SMILES),Reported as cell active (<10 μM) (cellular system),solubility kinetic [1] [µM],Inhibition of human microglial phagocytosis at 10 μM (<70% control) [3],solubility kinetic (physchem; [6]) [µM],"Mouse microglial cytotoxicity at 10 μM (<70% control) [4, 7]",further results
COC(=O)C1=C(C)NC2=C(C(=O)c3ccccc32)C1c1ccccc1OCc1ccccc1F (centres unmarked) [5408-1697],Y (Published data supports that the compound is active in a cellular system when dosed at 10 μM (Y/N)),< 2.1,Y (The compound was found to inhibit phagocytosis (response threshold: <70% control) when human immortalized microglial cells were dosed at 10 μM (Y: yes)),–,–,"Stimulation of mouse microglial phagocytosis at 10 μM (>150% control) ([2]; BV2 cells, 10 μM): Y (The compound was found to stimulate phagocytosis (response threshold: >150% control) when murine immortalized microglial cells were dosed at 10 μM (Y: yes))"
CC(=O)N1CCC(NC(=O)NC23CC4CC(CC(C4)C2)C3)CC1 [AR9281],–,–,–,163,–,"Stimulation of mouse microglial phagocytosis at 10 μM (>150% control) ([2]; BV2, 10 μM): Y (The compound was found to stimulate phagocytosis (response threshold: >150% control) when murine immortalized microglial cells were dosed at 10 μM (Y: yes))"
O=C(Nc1c[nH]nc1-c1nc2ccc(CN3CCOCC3)cc2[nH]1)NC1CC1 [AT9283],Y (Published data supports that the compound is active in a cellular system when dosed at 10 μM (Y/N)),144,Y (The compound was found to inhibit phagocytosis (response threshold: <70% control) when human immortalized microglial cells were dosed at 10 μM (Y: yes)),–,Y (The compound was found to be cytotoxic (cell count threshold: <70% control) when murine immortalized microglial cells were dosed at 10 μM (Y: yes)),"Inhibition of mouse microglial phagocytosis at 10 μM (<70% control) ([2]; BV2 cells, 10 μM): Y (The compound was found to inhibit phagocytosis (response threshold: <70% control) when murine immortalized microglial cells were dosed at 10 μM (Y: yes))"
CCOC(=O)CS(=O)(=O)c1ccc([C@@H](CO)NC(=O)c2cc3c(Cl)c(Cl)c(C)cc3n2C)cc1 [BI-4916],Y (Published data supports that the compound is active in a cellular system when dosed at 10 μM (Y/N)),< 1.1,Y (The compound was found to inhibit phagocytosis (response threshold: <70% control) when human immortalized microglial cells were dosed at 10 μM (Y: yes)),–,Y (The compound was found to be cytotoxic (cell count threshold: <70% control) when murine immortalized microglial cells were dosed at 10 μM (Y: yes)),"Stimulation of mouse microglial phagocytosis at 10 μM (>150% control) ([2]; BV2 cells, 10 μM): Y (The compound was found to stimulate phagocytosis (response threshold: >150% control) when murine immortalized microglial cells were dosed at 10 μM (Y: yes))"
CC(C)CCN1c2nc(Nc3cc(F)c(O)c(F)c3)ncc2N(C)C(=O)C1C (centres unmarked) [BI-D1870],Y (Published data supports that the compound is active in a cellular system when dosed at 10 μM (Y/N)),0.8,–,–,Y (The compound was found to be cytotoxic (cell count threshold: <70% control) when murine immortalized microglial cells were dosed at 10 μM (Y: yes)),Human microglial cytotoxicity at 10 μM (<70% control) [5]: Y (The compound was found to be cytotoxic (cell count threshold: <70% control) when human immortalized microglial cells were dosed at 10 μM (Y: yes)); Stimulation of human microglial phagocytosis at 10 μM (>150% control) [3]: Y (The compound was found to stimulate phagocytosis (response threshold: >150% control) when human immortalized microglial cells were dosed at 10 μM (Y: yes))
CCOC(=O)c1sc(NC(=O)c2ccco2)c(SC#N)c1C [CBR-5884],N (tested/active at 15 μM),2.8,Y (The compound was found to inhibit phagocytosis (response threshold: <70% control) when human immortalized microglial cells were dosed at 10 μM (Y: yes)),–,Y (The compound was found to be cytotoxic (cell count threshold: <70% control) when murine immortalized microglial cells were dosed at 10 μM (Y: yes)),"Stimulation of mouse microglial phagocytosis at 10 μM (>150% control) ([2]; BV2 cells, 10 μM): Y (The compound was found to stimulate phagocytosis (response threshold: >150% control) when murine immortalized microglial cells were dosed at 10 μM (Y: yes))"
COc1cc(Nc2ncc(F)c(Nc3ccc4c(n3)N(COP(=O)(O)O)C(=O)C(C)(C)O4)n2)cc(OC)c1OC [Fostamatinib],Y (Published data supports that the compound is active in a cellular system when dosed at 10 μM (Y/N)),161,–,–,Y (The compound was found to be cytotoxic (cell count threshold: <70% control) when murine immortalized microglial cells were dosed at 10 μM (Y: yes)),"Inhibition of mouse microglial phagocytosis at 10 μM (<70% control) ([2]; BV2 cells, 10 μM): Y (The compound was found to inhibit phagocytosis (response threshold: <70% control) when murine immortalized microglial cells were dosed at 10 μM (Y: yes)); Stimulation of human microglial phagocytosis at 10 μM (>150% control) [3]: Y (The compound was found to stimulate phagocytosis (response threshold: >150% control) when human immortalized microglial cells were dosed at 10 μM (Y: yes))"
CCCCc1nc(Cl)c(CO)n1Cc1ccc(-c2ccccc2-c2nn[nH]n2)cc1 [Losartan],–,–,–,117,–,–
CCCN(CC1CC1)c1nc(C)nc(Nc2c(Cl)cc(Cl)cc2Cl)c1Cl.Cl [NBI 27914 (Compound 7a)],–,–,–,< 0.5,–,"Mouse microglial cytotoxicity at 10 μM (<70% control) ([4]; BV2, 10 μM): Y (The compound was found to be cytotoxic (cell count threshold: <70% control) when murine immortalized microglial cells were dosed at 10 μM (Y: yes)); Stimulation of mouse microglial phagocytosis at 10 μM (>150% control) ([2]; BV2, 10 μM): Y (The compound was found to stimulate phagocytosis (response threshold: >150% control) when murine immortalized microglial cells were dosed at 10 μM (Y: yes))"
CCCCCCOc1cc2c(cc1N(C)c1ncc(C(=O)O)cn1)C(C)(C)CCC2(C)C [PA 452],Y (Published data supports that the compound is active in a cellular system when dosed at 10 μM (Y/N)),13.9,Y (The compound was found to inhibit phagocytosis (response threshold: <70% control) when human immortalized microglial cells were dosed at 10 μM (Y: yes)),–,–,"Stimulation of mouse microglial phagocytosis at 10 μM (>150% control) ([2]; BV2 cells, 10 μM): Y (The compound was found to stimulate phagocytosis (response threshold: >150% control) when murine immortalized microglial cells were dosed at 10 μM (Y: yes))"
COS(=O)(=O)[O-].C[n+]1c2ccccc2nc2ccccc21 [Phenazine methosulfate],Y (Published data supports that the compound is active in a cellular system when dosed at 10 μM (Y/N)),–,Y (The compound was found to inhibit phagocytosis (response threshold: <70% control) when human immortalized microglial cells were dosed at 10 μM (Y: yes)),–,Y (The compound was found to be cytotoxic (cell count threshold: <70% control) when murine immortalized microglial cells were dosed at 10 μM (Y: yes)),"Human microglial cytotoxicity at 10 μM (<70% control) [5]: Y (The compound was found to be cytotoxic (cell count threshold: <70% control) when human immortalized microglial cells were dosed at 10 μM (Y: yes)); Kinetic solubility ([1]; aqueous buffer pH 7.4): 101.8 µM; Inhibition of mouse microglial phagocytosis at 10 μM (<70% control) ([2]; BV2 cells, 10 μM): Y (The compound was found to inhibit phagocytosis (response threshold: <70% control) when murine immortalized microglial cells were dosed at 10 μM (Y: yes))"
CC(C)(C)c1cc(NC(=O)Nc2ccc(-c3cn4c(n3)sc3cc(OCCN5CCOCC5)ccc34)cc2)no1 [Quizartinib],–,–,–,0.9,–,–
CC(=O)N[C@H](Cc1ccc(O)cc1)C(=O)N1CCC[C@@H]1C(=O)N1C[C@@H](O)C[C@@H]1C(=O)NCC(=O)N[C@H](C)C(=O)NCC(N)=O [Rotigaptide] (Ac-[dY][dP][dHyp]G[dA]G-NH2),–,–,–,–,–,solubility kinetic (physchem; pH 7.4): 177 µM
COc1ccc(CC[C@@H](OC(=O)[C@@H]2CCCCN2C(=O)[C@H](c2cc(OC)c(OC)c(OC)c2)C2CCCCC2)c2cccc(OCC(=O)O)c2)cc1OC [SAFit1],–,–,–,87.3,–,"Stimulation of mouse microglial phagocytosis at 10 μM (>150% control) ([2]; 10 μM, BV2): Y (The compound was found to stimulate phagocytosis (response threshold: >150% control) when murine immortalized microglial cells were dosed at 10 μM (Y: yes))"
COc1cc(/C=C/c2ccc(NC(=O)/C=C/c3cc(OC)c(OC)c(OC)c3)cc2)cc(OC)c1 [STAT3-IN-3],Y (Published data supports that the compound is active in a cellular system when dosed at 10 μM (Y/N)),4.9,Y (The compound was found to inhibit phagocytosis (response threshold: <70% control) when human immortalized microglial cells were dosed at 10 μM (Y: yes)),–,Y (The compound was found to be cytotoxic (cell count threshold: <70% control) when murine immortalized microglial cells were dosed at 10 μM (Y: yes)),"Inhibition of mouse microglial phagocytosis at 10 μM (<70% control) ([2]; BV2 cells, 10 μM): Y (The compound was found to inhibit phagocytosis (response threshold: <70% control) when murine immortalized microglial cells were dosed at 10 μM (Y: yes))"
Cc1cc(NC(=O)Cc2ccc(F)c(Cl)c2)n(C2CCCCC2)n1 [VU0810464],–,–,–,108,–,–
N[C@@H](CC(=O)Nc1ccc(Oc2cc(F)c(F)cc2Br)cc1)C(=O)O [WAY 213613],Y (Published data supports that the compound is active in a cellular system when dosed at 10 μM (Y/N)),148,–,–,Y (The compound was found to be cytotoxic (cell count threshold: <70% control) when murine immortalized microglial cells were dosed at 10 μM (Y: yes)),"Stimulation of mouse microglial phagocytosis at 10 μM (>150% control) ([2]; BV2 cells, 10 μM): Y (The compound was found to stimulate phagocytosis (response threshold: >150% control) when murine immortalized microglial cells were dosed at 10 μM (Y: yes))"
